This note sets out measurements from ChEMBL document CHEMBL1152415, “Potent antitumor bifunctional DNA alkylating agents, synthesis and biological activities of 3a-aza-cyclopenta[a]indenes” (Bioorg Med Chem, 2009).

Data set [1] deals with CCRF-CEM. Kind of data set: Cytotoxicity against human vinblastine-resistant CCRF-CEM cells after 72 hrs by XTT assay. It counts as functional, cell-based. (In general: Tetrazolium dyes change colour on reduction, which living cells bring about.)
Data set [2] has as its system CCRF-CEM. As to the kind of experiment: Cytotoxicity against human CCRF-CEM cells after 72 hrs by XTT assay. The conditions noted are these: read-out: IC50. It counts as functional, cell-based.
Data set [3] has as its system CCRF-CEM. As to the kind of experiment: Cytotoxicity against human taxol-resistant CCRF-CEM cells after 72 hrs by XTT assay. It counts as functional, cell-based.
The subject of data set [4] is CCRF-CEM. Kind of data set: Cross-resistance, IC50 for human vinblastine-resistant CCRF-CEM cells to IC50 for human CCRF-CEM cells. It counts as functional.
For data set [5], the system named is CCRF-CEM. As to the kind of experiment: Cross-resistance, IC50 for human taxol-resistant CCRF-CEM cells to IC50 for human CCRF-CEM cells. It counts as functional.
The subject of data set [6] is MX1. Kind of data set: Cytotoxicity against human MX1 cells after 72 hrs by SRB assay. It counts as functional, cell-based. The conditions noted are these: MX1, 72 h. On the technique in general: Sulforhodamine B stains cellular protein and so reports cell mass.
Data set [7] has as its system HCT-116. As to the kind of experiment: Cytotoxicity against human HCT116 cells after 72 hrs by SRB assay. It counts as functional, cell-based. Conditions: HCT-116, 72 h.
Data set [8] can be described thus: Cytotoxicity against human H1299 cells after 72 hrs by WST-1 assay. It counts as functional, cell-based. Conditions: NCI-H1299, 72 h.
The nature of data set [9]: Cytotoxicity against human OECM1 cells after 72 hrs by WST-1 assay. It counts as functional, cell-based. Conditions: OECM1, 72 h.
Data set [10] relates to PC-3. Kind of data set: Cytotoxicity against human PC3 cells after 72 hrs by WST-1 assay. The conditions noted are these: PC-3, 72 h. It counts as functional, cell-based.
The nature of data set [11]: Cytotoxicity against human U87 cells after 72 hrs by WST-1 assay. The conditions noted are these: U-87 MG. It counts as functional, cell-based, U-87MG ATCC.
Data set [12] is described as follows: Toxicity in athymic nu/nu mouse assessed as maximum tolerated dose. Conditions: in vivo, read-out: Activity. It counts as organism-based.
Data set [13] concerns MX1. Kind of data set: Antitumor activity in human MX1 cells xenografted athymic nu/nu mouse assessed as complete remission of tumor at 50 mg/kg, iv administered daily once for 3 days. More on the design: dose 50 mg/kg. It counts as functional, organism-based.
Data set [14] has as its system MX1. As to the kind of experiment: Antitumor activity in human MX1 cells xenografted athymic nu/nu mouse assessed as complete remission of tumor at 5 mg/kg, iv administered daily once for 3 days. It counts as functional, organism-based. Set-up: dose 5 mg/kg.
For data set [15], the system named is MX1. Kind of data set: Antitumor activity in human MX1 cells xenografted athymic nu/nu mouse assessed as complete remission of tumor at 18 mg/kg, iv administered daily twice for 2 days. Set-up: dose 18 mg/kg. It counts as functional, organism-based. Background: A xenograft is tissue or cells of one species grown in another, often human tumour cells in immunodeficient mice.

In data set [16] the test system is MX1. Kind of data set: Antitumor activity in human MX1 cells xenografted athymic nu/nu mouse assessed as complete remission of tumor at 15 mg/kg, iv administered daily twice for 4 days. It counts as functional, organism-based. More on the design: dose 15 mg/kg.
Data set [17] deals with MX1. As to the kind of experiment: Antitumor activity in human MX1 cells xenografted athymic nu/nu mouse assessed as complete remission of tumor at 5 mg/kg, iv administered daily once for 3 days measured after 22 days of tumor implantation. More on the design: dose 5 mg/kg. It counts as functional, organism-based.
In data set [18] the test system is Nucleic Acid. Kind of data set: Induction of pEGFP-N1 plasmid DNA interstrand cross-linking at 1 uM after 2 hrs by alkaline agarose gel shift assay. It counts as nucleic-acid assay.
In data set [19] the test system is Nucleic Acid. As to the kind of experiment: Induction of pEGFP-N1 plasmid DNA interstrand cross-linking at 10 uM after 2 hrs by alkaline agarose gel shift assay. It counts as nucleic-acid assay.
The subject of data set [20] is Nucleic Acid. As to the kind of experiment: Induction of pEGFP-N1 plasmid DNA interstrand cross-linking at 20 uM after 2 hrs by alkaline agarose gel shift assay. It counts as nucleic-acid assay.
Data set [21] has as its system Nucleic Acid. Kind of data set: Induction of DNA interstrand cross-linking in human H1299 cells at 100 uM under aerobic condition for 1 hr followed by irradiated with 20 Gy of X-ray by modified comet assay relative to irradiated untreated control. It counts as cell-based.
Data set [22] is described as follows: Cell cycle arrest in human H1299 cells assessed as accumulation at subG1 phase at 10 uM after 24 hrs by flow cytometry relative to control. It counts as functional, cell-based. The conditions noted are these: NCI-H1299.
Data set [23] in a line: Cell cycle arrest in human H1299 cells assessed as accumulation at G0/G1 phase at 10 uM after 24 hrs by flow cytometry relative to control. Conditions: NCI-H1299. It counts as functional, cell-based.
Data set [24] in a line: Cell cycle arrest in human H1299 cells assessed as accumulation at S phase at 10 uM after 24 hrs by flow cytometry relative to control. Conditions: NCI-H1299. It counts as functional, cell-based.
A short description of data set [25]: Cell cycle arrest in human H1299 cells assessed as accumulation at G2/M phase at 10 uM after 24 hrs by flow cytometry relative to control. Conditions: NCI-H1299. It counts as functional, cell-based.
Data set [26] can be described thus: Cell cycle arrest in human H1299 cells assessed as accumulation at subG1 phase at 10 uM after 48 hrs by flow cytometry relative to control. It counts as functional, cell-based. The conditions noted are these: NCI-H1299.
Data set [27] in a line: Cell cycle arrest in human H1299 cells assessed as accumulation at G0/G1 phase at 10 uM after 48 hrs by flow cytometry relative to control. It counts as functional, cell-based. The conditions noted are these: NCI-H1299.
Data set [28] can be described thus: Cell cycle arrest in human H1299 cells assessed as accumulation at S phase at 10 uM after 48 hrs by flow cytometry relative to control. It counts as functional, cell-based. The conditions noted are these: NCI-H1299.
A short description of data set [29]: Cell cycle arrest in human H1299 cells assessed as accumulation at G2/M phase at 10 uM after 48 hrs by flow cytometry relative to control. It counts as functional, cell-based. Conditions: NCI-H1299.
The nature of data set [30]: Cell cycle arrest in human H1299 cells assessed as accumulation at subG1 phase at 10 uM after 72 hrs by flow cytometry relative to control. It counts as functional, cell-based. Conditions: NCI-H1299.
Data set [31] is described as follows: Cell cycle arrest in human H1299 cells assessed as accumulation at G0/G1 phase at 10 uM after 72 hrs by flow cytometry relative to control. The conditions noted are these: NCI-H1299. It counts as functional, cell-based.
The nature of data set [32]: Cell cycle arrest in human H1299 cells assessed as accumulation at S phase at 10 uM after 72 hrs by flow cytometry relative to control. It counts as functional, cell-based. Conditions: NCI-H1299.
A short description of data set [33]: Cell cycle arrest in human H1299 cells assessed as accumulation at G2/M phase at 10 uM after 72 hrs by flow cytometry relative to control. It counts as functional, cell-based. Conditions: NCI-H1299.
Data set [34] concerns MX1. As to the kind of experiment: Antitumor activity in human MX1 cells xenografted athymic nu/nu mouse assessed as complete remission of tumor at 15 mg/kg, iv administered daily twice for 4 days measured after 18 days of tumor implantation. It counts as functional, organism-based. Set-up: dose 15 mg/kg.

The source made the active and inactive calls. No cut-off for these calls is given here.

As usually defined, the IC50 is the midpoint of a concentration-inhibition curve. As to `CNC(=O)OCc1c(COC(=O)NC)c(-c2ccc(OC)cc2)n2c1Cc1ccccc1-2`, the half-maximal inhibitory concentration (IC50) was 63 nM in [1]; 49 nM in data set [2]; 70 nM in data set [3]; 1900 nM in [6]; 2600 nM in data set [7]; 42600 nM in data set [8]. Moreover, the IC50 in data set [9] stood at 4630 nM; in [10], 38200 nM; in [11] it was 34400 nM. In addition, the entries for the “Ratio IC50” value in data set [4] and in data set [5] were 1.3 and 1.4, respectively. The MTD in data set [12] amounted to 5 mg/kg. In addition, the outcome in data set [13], in data set [14], in [15], in data set [16], in data set [17] and in data set [18] was Active. Further, the result in data set [19] and in data set [20] was Active.

Regarding `CNC(=O)OCc1c(COC(=O)NC)c(-c2ccc(OC)cc2)n2c1Cc1cc(OC)ccc1-2`, the IC50 in data set [1] is 98 nM; in data set [2], 62 nM; in data set [3], 62 nM; in data set [6], 870 nM; in [7] it was 440 nM; in data set [8], 20900 nM. Moreover, the IC50 in [9] worked out at 1270 nM; in [10], 22000 nM; in [11], 38300 nM. For the same compound, the figures for the “Ratio IC50” value in [4] and in data set [5] were 1.6 and 1, respectively. Further, the outcome in data set [18], in data set [19] and in [20] was Active. For the same compound, the Activity came to 97.9% in data set [21]; 2.64% in data set [22]; 44.7% in data set [23]; 51.1% in data set [24]; 4.15% in data set [25]; 5.86% in data set [26]. Moreover, the Activity in data set [27] turned out to be 24.9%; in data set [28], 25.6%; in data set [29], 49.5%; in data set [30], 17.2%; in [31], 5.06%; in [32], 9.19%. Moreover, the Activity in [33] stood at 85.8%.

Consider `CNC(=O)OCc1c(COC(=O)NC)c(-c2ccccc2OC)n2c1Cc1ccccc1-2`, for which the IC50 stood at 360 nM in [1]; 140 nM in data set [2]; 250 nM in data set [3]; 1300 nM in [6]; 150 nM in data set [7]. Further, the “Ratio IC50” value in [4] was determined as 2.7; in [5] it was 1.8. In [12], the MTD came to 15 mg/kg. Further, the result in data set [13], in data set [14], in [15], in data set [16], in [34] and in data set [18] was Active. For the same compound, the outcome in [19] and in data set [20] was Active.

With `COc1ccc(-c2c(CO)c(CO)c3n2-c2ccc(OC)cc2C3)cc1`, the IC50 in [1] was 140 nM; in data set [2] it was 120 nM; in data set [3] it was 62 nM; in [6] it was 1500 nM; in data set [7], 670 nM; in data set [8] it was 19000 nM. Further, the IC50 was 1540 nM in data set [9], 23200 nM in [10] and 24400 nM in data set [11]. In addition, the “Ratio IC50” value in [4] is listed as 1.2; in data set [5] it was 0.53. The result in data set [18], in [19] and in data set [20] was Active. Moreover, the Activity is 35.5% in data set [21]; 1.95% in data set [22]; 43.7% in data set [23]; 50.5% in data set [24]; 5.84% in [25]; 3.88% in [26]. The Activity was 19.3% in data set [27]; 38.9% in data set [28]; 41.9% in [29]; 15.6% in data set [30]; 1.8% in data set [31]; 24.6% in [32]. Also, the Activity in data set [33] was 73.6%.
